Assay results taken from paper PMC3338619, “Ligand Binding Study of Human PEBP1/RKIP: Interaction with Nucleotides and Raf-1 Peptides Evidenced by NMR and Mass Spectrometry” (PLoS ONE, 2012).

How the values were obtained:
hPEBP1 [1] = molecular target: T1, hPEBP1 (Homo sapiens, UniProt P30086); experiment: Native mass spectrometry KD determination (bound protein fraction); type: binding; conditions: ammonium bicarbonate 20 mM pH 7.4/37°C, no NaCl; read-out: MS KD
T1 construct: all residues except Met1, Val3, Asp35, Gln45, Lys47 and Lys187 (total residues: 187;); made in house; host or cells: E. coli BL21 (DE3), pET31b
T1 sequence (P30086 whole entry): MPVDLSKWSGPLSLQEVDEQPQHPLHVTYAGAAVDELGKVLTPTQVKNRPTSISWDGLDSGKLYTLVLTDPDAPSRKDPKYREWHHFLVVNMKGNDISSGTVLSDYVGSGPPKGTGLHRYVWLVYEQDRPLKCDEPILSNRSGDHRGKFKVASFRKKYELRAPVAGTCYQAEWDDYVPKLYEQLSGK
Method: Non-labeled recombinant hPEBP1 purified as previously described was used for mass spectrometry analysis. To prevent Na^+ adduct formation, the commercial GTP and FMN nucleotides used in native MS were desalted. For this purpose, a protocol derived from the RNA-desalting procedure of Limbach et al. (1995) was set up.
All MS measurements were performed in an ESI-ion trap model Esquire HCT or Ultra HCT PTM Discovery (Bruker, Bremen, Germany), or in a maXis ESI-UHR-Qq-TOF (Bruker). Complexes were formed by incubating hPEBP1 with a range of ligand concentrations in ammonium bicarbonate 20 mM/formic acid buffer, pH 7.4 at 37°C or in ammonium acetate 20 mM, pH 6.6 at 20°C. After incubation, samples were treated with a Zeba micro gel filtration device with a 7 kDa cut-off (Thermo Scientific, Waltham, MA) prior to MS measurement, or analyzed directly in MS. The KD was determined by measuring the bound protein fraction by native MS. Details of the development of the native MS method for KD determination are described in the work of Jaquillard et al. (in press).

hPEBP1 [2] = molecular target: T1, hPEBP1; experiment: 15N-1H HSQC NMR titration of ligands with hPEBP1 (KD from CSP fitting); type: binding
Method: The interactions between hPEBP1 100–270 µM and the four selected ligands were investigated by ^15N-^1H heteronuclear single quantum coherence (HSQC) NMR experiments with a sensitivity enhancement and gradient selected coherence. ^1H, ^15N HSQC spectra were recorded at 20 or 30°C on a Bruker 500 MHz or a Varian Inova 600 MHz spectrometer. Two experimental sets of conditions were tested: MES 10 mM pH 6.5 at 20°C, and HEPES 10 mM, NaCl 100 mM pH 7.5 at 30°C.
In the simple case of protein-ligand interactions, the free and the bound states are observed during the titration. The interpretation of an NMR spectrum, such as an HSQC, depends on the rate of exchange between the bound and the free forms. Three different cases can be observed. If the complex rate of dissociation is very slow, two separate resonances are observed at the positions corresponding to the chemical shifts characteristic of the two states (free and bound). During the titration, the intensity of the free resonance decreases while the bound resonance one appears and goes up. This regime corresponds to slow chemical exchange on the NMR time scale. If the complex rate of dissociation is very fast, only a single resonance is observed, whose position is the average of the chemical shifts of the two states, weighted by their relative populations. In this case, Chemical Shift Perturbations (CSP) are observed, i.e. the chemical shift evolves as the ligand concentration increases. This regime corresponds to fast exchange on the NMR time scale, and is typical for weaker affinity complexes. In the intermediate chemical exchange case, in addition to CSP, complex changes will affect the line shape that results in the observation of very broad signals with low intensity.
In the fast exchange regime, CSP can be measured from ^15N-HSQC spectra using the equation: [drawing 1] (1) with δ being the chemical shift in ppm.
A threshold value was estimated in order to determine significant CSP. In a first step, all the CSP are considered and the average (<CSP>) plus two times the standard deviation (σ) is calculated. Then, the highest CSP (CSP≥<CSP>+2σ) are removed from the data and new average and new standard deviation calculated. The operation is repeated until the convergence is reached.
Once the residues involved in the binding were selected, the experimental data were fitted with the quadratic equation 2 using SigmaPlot 9.0 in order to obtain the dissociation constant value (KD): [drawing 2] (2) where [P]0 and [L] are the total protein and ligand concentrations, respectively. A KD value was estimated for each residue involved in the binding, and then an average was calculated.

rPEBP1 = system: rPEBP1; parameters: method as in PMID 20463977; conditions: pH 7.4/NaCl 100 mM/30°C, 130 mM GTP for 75 µM rPEBP1; cited from earlier work
[3] = HEPES 10 mM pH 7.5/NaCl 100 mM/30°C (near physiological conditions)

| Structure (SMILES) | Kd (hPEBP1 [1]) [µM] | Kd (hPEBP1 [2]; HEPES 10 mM pH 7.5/20°C, from CSP data of 9 residues in fast exchange) [µM] | Kd (hPEBP1 [2]; [3]) [µM] | Kd (hPEBP1 [2]; MES 10 mM pH 6.5/20°C) [µM] | chemical shift perturbations for rPEBP1 (rPEBP1) |
| --- | --- | --- | --- | --- | --- |
| Cc1cc2nc3c(=O)[nH]c(=O)nc-3n(C[C@H](O)[C@H](O)[C@H](O)COP(=O)(O)O)c2cc1C [FMN, flavin mononucleotide] | 5 ± 4 | 14 ± 11 | 252 ± 84 | 14 ± 9 |  |
| Nc1nc2c(ncn2[C@@H]2O[C@H](COP(=O)(O)OP(=O)(O)OP(=O)(O)O)[C@@H](O)[C@H]2O)c(=O)[nH]1 [GTP, Guanosine triphosphate] | 89 ± 48 |  | 3420 ± 1970 | 669 ± 140 | did not cause significant chemical shift perturbations |
| O=C1N[C@@H](Cc2ccccc2)CO1 [locostatin precursor, (S)-4-benzyl-2-oxazolidinone] |  |  | 173 ± 19 |  |  |
